Measurements taken from ChEMBL document CHEMBL1201862, “PubChem BioAssay data set” (2004).
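The compound was tested at five concentrations on cells cultured in 96-well plates, with a 48-hour exposure period. GI50 = concentration required for 50% inhibition of growth.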 Activity calls are given as the source filed them. Rule as the data show it: active = GI50 up to about 1.1 µM and inactive = higher.

Tests used:
Assay in all cases: NCI anticancer screen, dose series, 48 h
[1] = tested on: Malme-3M
[2] = tested on: SF-295
[3] = tested on: ACHN
[4] = tested on: UO-31
[5] = tested on: SR
[6] = tested on: COLO 205
[7] = tested on: K562
[8] = tested on: UACC-257
[9] = tested on: SK-MEL-5
[10] = tested on: SK-OV-3
[11] = tested on: CCRF-CEM
[12] = tested on: TK-10
[13] = tested on: RXF 393
[14] = tested on: SNB-75
[15] = tested on: LOX IMVI
[16] = tested on: HCT-116
[17] = tested on: RPMI-8226

Measured: GI50

COc1cccc(C2c3cc4c(cc3OC(O)(CO)C2C(=O)O)OCO4)c1.COc1cccc(C2c3cc4c(cc3OC3(O)COC(=O)C23)OCO4)c1 (stereo not given)
inactive: [1] > 100 µM | [2] 39.9 µM | [3] 49.5 µM | [4] 64.3 µM | [5] 38.8 µM | [6] > 100 µM | [7] 37.7 µM | [8] 41.5 µM | [9] 67.1 µM | [10] 91.8 µM | [11] 37.6 µM | [12] > 100 µM | [13] 33.5 µM | [14] 14.5 µM | [15] 52.1 µM | [16] 46.1 µM | [17] 53 µM

CN(C)CCCN1N=Nc2cccc3cccc1c23
inactive: [1] > 100 µM | [2] > 90.8 µM | [3] 56.1 µM | [4] > 64.6 µM | [5] 26.5 µM | [6] 34.6 µM | [7] 26.7 µM | [8] > 91.8 µM | [9] > 84.9 µM | [10] > 100 µM | [11] 27.9 µM | [12] > 100 µM | [14] > 100 µM | [15] 41.9 µM | [16] 28.8 µM | [17] > 51.1 µM

Nc1ncnc2c1ncn2CCCC(c1ccccc1)P(=O)(O)O (stereo not given)
inactive: [1] > 100 µM | [2] > 100 µM | [3] > 100 µM | [4] > 100 µM | [5] > 100 µM | [6] > 100 µM | [8] > 100 µM | [9] > 100 µM | [10] > 100 µM | [12] > 100 µM | [13] > 100 µM | [14] > 100 µM | [15] > 100 µM | [16] > 100 µM

COC(=O)C(c1ccc(OC)cc1)N1C(=O)[C@@H](NC(=O)c2ccccc2)[C@H]1[C@@H](C)O (stereo not given in full)
inactive: [1] > 100 µM | [2] > 100 µM | [3] > 100 µM | [4] > 100 µM | [5] > 100 µM | [6] > 100 µM | [7] > 100 µM | [8] > 100 µM | [9] > 100 µM | [10] > 100 µM | [11] > 100 µM | [12] > 100 µM | [13] > 100 µM | [14] > 100 µM | [15] > 100 µM | [16] > 100 µM

COC(OC)[C@@H](C)[C@H](O)[C@](C)(O)C1OC(C)(C)OC(C(C)C=C(C)C)C1C (stereo not given in full)
inactive: [1] > 100 µM | [2] > 100 µM | [3] > 100 µM | [4] 80.7 µM | [5] 73.3 µM | [6] > 100 µM | [7] 77.1 µM | [8] 93.1 µM | [9] 64.9 µM | [10] > 100 µM | [11] > 100 µM | [12] > 100 µM | [13] 66.4 µM | [14] > 100 µM | [15] > 100 µM | [16] > 100 µM | [17] 48.6 µM

CC1(C)CC[C@]2(C(=O)O)CCC3(C)C(=CCC4[C@@]5(C)CC[C@H](OC6OCC(O)C(O)C6OC6OC(CO)C(O)C(O)C6O)C(C)(C)C5CC[C@]43C)C2C1 (stereo not given in full)
inactive: [1] 1.87 µM | [2] 1.79 µM | [3] 1.94 µM | [4] 2.16 µM | [5] 2.29 µM | [6] 1.89 µM | [8] 2.94 µM | [9] 3.98 µM | [10] 2.22 µM | [12] 2.04 µM | [13] 1.96 µM | [14] 2.2 µM | [15] 1.95 µM | [16] 2.81 µM | [17] 2.35 µM
